In ChEMBL document CHEMBL2010748, “Structure-Activity Relationship Studies of HIV-1 Integrase Oligonucleotide Inhibitors” (ACS Med Chem Lett, 2011):

Target: Human immunodeficiency virus type 1 integrase (Human immunodeficiency virus 1, UniProt Q7ZJM1)
Experiment: Inhibition of Human immunodeficiency virus 1 integrase 3'-processing activity expressed in Escherichia coli using 21-mer DNA and Mg2+ after 2 hrs by polyacrylamide gel electrophoresis

Human immunodeficiency virus type 1 integrase, sequence (Q7ZJM1 whole entry): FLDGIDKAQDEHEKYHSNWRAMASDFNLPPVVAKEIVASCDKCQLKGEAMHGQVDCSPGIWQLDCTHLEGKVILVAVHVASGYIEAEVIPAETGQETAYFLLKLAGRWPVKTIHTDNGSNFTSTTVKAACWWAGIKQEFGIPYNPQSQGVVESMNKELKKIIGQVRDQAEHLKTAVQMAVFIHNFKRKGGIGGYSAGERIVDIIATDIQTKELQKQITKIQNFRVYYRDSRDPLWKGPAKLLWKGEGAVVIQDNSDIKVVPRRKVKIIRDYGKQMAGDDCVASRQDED

Row | SMILES | IC50 [nM]
1 | Cc1cn([C@H]2C[C@H](OP(=O)(O)OC[C@H]3O[C@@H](n4cc(C)c(=O)[nH]c4=O)C[C@@H]3OP(=O)(S)OC[C@H]3O[C@@H](n4cc(C)c(=O)[nH]c4=O)C[C@@H]3OP(=O)(O)OC[C@H]3O[C@@H](n4cnc5c(=O)[nH]c(N)nc54)C[C@@H]3OP(=O)(O)OC[C@H]3O[C@@H](n4cc(C)c(=O)[nH]c4=O)C[C@@H]3OP(=O)(S)OC[C@H]3O[C@@H](n4cnc5c(=O)[nH]c(N)nc54)C[C@@H]3OP(=O)(O)OC[C@H]3O[C@@H](n4cc(C)c(=O)[nH]c4=O)C[C@@H]3OP(=O)(O)OCCCCCCNC(=S)Nc3ccc(-c4c5cc(Br)c(=O)c(Br)c-5oc5c(Br)c(O)c(Br)cc45)c(C(=O)O)c3)[C@@H](COP(=O)(O)O[C@H]3C[C@H](n4cc(C)c(=O)[nH]c4=O)O[C@@H]3COP(=O)(S)O[C@H]3C[C@H](n4cc(C)c(=O)[nH]c4=O)O[C@@H]3COP(=O)(O)O[C@H]3C[C@H](n4cnc5c(=O)[nH]c(N)nc54)O[C@@H]3COP(=O)(O)O[C@H]3C[C@H](n4cnc5c(=O)[nH]c(N)nc54)O[C@@H]3CO)O2)c(=O)[nH]c1=O (stereo not given in full) | 24
2 | Cc1cn([C@H]2C[C@H](O)[C@@H](COP(=O)(O)O[C@H]3CCO[C@@H]3COP(=O)(O)O[C@H]3CCO[C@@H]3COP(=O)(O)O[C@H]3CCO[C@@H]3COP(=O)(O)O[C@H]3CCO[C@@H]3COP(=O)(O)O[C@H]3CCO[C@@H]3COP(=O)(O)O[C@H]3CCO[C@@H]3COP(=O)(O)O[C@H]3CCO[C@@H]3COP(=O)(O)O[C@H]3CCO[C@@H]3COP(=O)(O)O[C@H]3CCO[C@@H]3COP(=O)(O)O[C@H]3CCO[C@@H]3COP(=O)(O)OCCCCCCNC(=O)c3cc(Cl)c(C(=O)O)c(-c4c5cc(Cl)c(=O)c(Cl)c-5oc5c(Cl)c(O)c(Cl)cc45)c3Cl)O2)c(=O)[nH]c1=O | 1200
3 | Cc1cn([C@H]2C[C@H](OP(=O)(O)OC[C@H]3OCC[C@@H]3OP(=O)(O)OC[C@H]3OCC[C@@H]3OP(=O)(O)OC[C@H]3OCC[C@@H]3OP(=O)(O)OC[C@H]3OCC[C@@H]3OP(=O)(O)OC[C@H]3OCC[C@@H]3OP(=O)(O)OC[C@H]3OCC[C@@H]3OP(=O)(O)OC[C@H]3O[C@@H](n4cc(C)c(=O)[nH]c4=O)C[C@@H]3O)[C@@H](COP(=O)(O)O[C@H]3C[C@H](n4cc(C)c(=O)[nH]c4=O)O[C@@H]3COP(=O)(O)O[C@H]3C[C@H](n4cnc5c(=O)[nH]c(N)nc54)O[C@@H]3COP(=O)(O)O[C@H]3C[C@H](n4cnc5c(=O)[nH]c(N)nc54)O[C@@H]3COP(=O)(O)OCCCCCCNC(=O)c3cc(Cl)c(C(=O)O)c(-c4c5cc(Cl)c(=O)c(Cl)c-5oc5c(Cl)c(O)c(Cl)cc45)c3Cl)O2)c(=O)[nH]c1=O | 250
4 | Cc1cn([C@H]2C[C@H](OP(=O)(O)OC[C@H]3O[C@@H](n4cc(C)c(=O)[nH]c4=O)C[C@@H]3OP(=O)(O)OC[C@H]3O[C@@H](n4cc(C)c(=O)[nH]c4=O)C[C@@H]3OP(=O)(O)OC[C@H]3O[C@@H](n4cnc5c(=O)[nH]c(N)nc54)C[C@@H]3OP(=O)(O)OC[C@H]3O[C@@H](n4cc(C)c(=O)[nH]c4=O)C[C@@H]3OP(=O)(O)OC[C@H]3O[C@@H](n4cnc5c(=O)[nH]c(N)nc54)C[C@@H]3OP(=O)(O)OC[C@H]3O[C@@H](n4cc(C)c(=O)[nH]c4=O)C[C@@H]3O)[C@@H](COP(=O)(O)O[C@H]3C[C@H](n4cc(C)c(=O)[nH]c4=O)O[C@@H]3COP(=O)(O)O[C@H]3C[C@H](n4cc(C)c(=O)[nH]c4=O)O[C@@H]3COP(=O)(O)O[C@H]3C[C@H](n4cnc5c(=O)[nH]c(N)nc54)O[C@@H]3COP(=O)(O)O[C@H]3C[C@H](n4cnc5c(=O)[nH]c(N)nc54)O[C@@H]3COP(=O)(O)OCCCCCCNC(=O)c3ccc(C(=O)O)c(-c4c5ccc(=O)cc-5oc5cc(O)ccc45)c3)O2)c(=O)[nH]c1=O | 310
5 | Cc1cn([C@H]2C[C@H](OP(=O)(O)OCCCOP(=O)(O)OCCCOP(=O)(O)OCCCOP(=O)(O)OCCCOP(=O)(O)OCCCOP(=O)(O)OCCCOP(=O)(O)OC[C@H]3O[C@@H](n4cc(C)c(=O)[nH]c4=O)C[C@@H]3O)[C@@H](COP(=O)(O)O[C@H]3C[C@H](n4cc(C)c(=O)[nH]c4=O)O[C@@H]3COP(=O)(O)O[C@H]3C[C@H](n4cnc5c(=O)[nH]c(N)nc54)O[C@@H]3COP(=O)(O)O[C@H]3C[C@H](n4cnc5c(=O)[nH]c(N)nc54)O[C@@H]3COP(=O)(O)OCCCCCCNC(=O)c3cc(Cl)c(C(=O)O)c(-c4c5cc(Cl)c(=O)c(Cl)c-5oc5c(Cl)c(O)c(Cl)cc45)c3Cl)O2)c(=O)[nH]c1=O | 310
